Experimental data published in publication PMC11503522, “Native Mass Spectrometry of Membrane Protein–Lipid Interactions in Different Detergent Environments” (Analytical Chemistry, 2024).

Assays:
AmtB-GlnK complex = biological target: T1, AmtB-GlnK complex (Escherichia coli, UniProt P69681); assay: native MS, mole fraction of lipid-bound states; assay type: binding; settings: ADP present, 200 mM ammonium acetate pH 7.4
T1 construct: with Nitrogen regulatory protein GlnK
T1 sequence (P69681 23-428): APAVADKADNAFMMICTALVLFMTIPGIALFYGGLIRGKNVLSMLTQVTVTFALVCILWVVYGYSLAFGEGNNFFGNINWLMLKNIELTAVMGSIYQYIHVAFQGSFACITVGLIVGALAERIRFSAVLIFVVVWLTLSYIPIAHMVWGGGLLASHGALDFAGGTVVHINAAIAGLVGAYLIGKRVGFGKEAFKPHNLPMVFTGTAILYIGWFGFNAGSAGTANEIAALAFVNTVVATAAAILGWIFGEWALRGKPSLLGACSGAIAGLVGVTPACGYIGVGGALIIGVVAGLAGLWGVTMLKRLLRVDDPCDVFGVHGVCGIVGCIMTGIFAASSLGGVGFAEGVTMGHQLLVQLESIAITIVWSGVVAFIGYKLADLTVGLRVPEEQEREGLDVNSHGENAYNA
T1 sequence (P0AC55 1-112 partner): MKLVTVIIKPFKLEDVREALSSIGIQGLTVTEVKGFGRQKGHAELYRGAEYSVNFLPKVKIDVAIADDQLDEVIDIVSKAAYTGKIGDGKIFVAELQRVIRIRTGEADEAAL

AqpZ (AqpZ-STII) = biological target: T2, AqpZ (AqpZ-STII) (Escherichia coli, UniProt P60844); assay: native MS lipid titration, sequential binding model; settings: LDAO; first lipid bound; range over conditions; 200 mM ammonium acetate pH 7.4, room temperature; read-out: Kd1
T2 construct: C-terminal Strep-tag II
T2 sequence (P60844 1-231): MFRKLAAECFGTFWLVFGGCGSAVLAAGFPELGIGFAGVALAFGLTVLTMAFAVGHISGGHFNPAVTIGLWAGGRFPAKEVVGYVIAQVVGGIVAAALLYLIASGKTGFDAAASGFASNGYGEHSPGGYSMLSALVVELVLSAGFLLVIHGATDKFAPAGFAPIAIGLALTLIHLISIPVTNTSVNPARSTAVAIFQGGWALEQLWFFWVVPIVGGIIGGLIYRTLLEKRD

[1] = biological target: T3, Aquaporin Z from Escherichia coli containing a C-terminal Strep-tag II (Escherichia coli), P60844; assay: native MS; 1 uM AqpZ in 200 mM ammonium acetate pH 7.4 with 2x CMC detergent (C8E4 or LDAO alone; DM, OGNG, NG, C8E4 or LDAO with 5 mM SPM or 60 mM TMAO); nanoESI, Exactive Plus EMR Orbitrap, room temperature; settings: remark: other sources report otherwise
T3 chain: T2 sequence (P60844 1-231)

## CCCCCCCC/C=C\CCCCCCCC(=O)O[C@H](COC(=O)CCCCCCCCCCCCCCC)COP(=O)(O)O [POPA]
AmtB-GlnK complex; several detergents
  native MS, mole fraction of lipid-bound states: POPA and POPS binding to AmtB-GlnK was broadly comparable for the different detergents

## CCCCCCCC/C=C\CCCCCCCC(=O)OC[C@H](COP(=O)(O)OCC(O)COP(=O)(O)OC[C@@H](COC(=O)CCCCCCC/C=C\CCCCCCCC)OC(=O)CCCCCCC/C=C\CCCCCCCC)OC(=O)CCCCCCC/C=C\CCCCCCCC (some centres unmarked) [TOCDL]
AqpZ (AqpZ-STII)
  Kd: 300 to 1400 nM
AmtB-GlnK complex; 2 μM complex, 25 μM lipid, C8E4, LDAO, DM or NG
  native MS, mole fraction of lipid-bound states: binding of TOCDL was more prominent in LDAO and DM

## CCCCCCCC/C=C\CCCCCCCC(=O)O[C@H](COC(=O)CCCCCCCCCCCCCCC)COP(=O)(O)OCC(O)CO (some centres unmarked) [POPG]
AmtB-GlnK complex; several detergents
  native MS, mole fraction of lipid-bound states: AmtB-GlnK in different detergent environments showed comparable binding of POPG

B1: Aquaporin Z from Escherichia coli containing a C-terminal Strep-tag II, P60844 1-231 (natural protein)
chain: T2 sequence (P60844 1-231)
[1]
  stoichiometry N: 4
